Laboratory results from patent publication US20040013679A1, “LL-37 is an immunostimulant” (priority 2000, published 2004).
Marks after values point to notes of the source that are not given here.

Legend:
immature dendritic cells [1] = test: Chemotaxis of monocyte-derived immature dendritic cells; format: cell-based, human; settings: monocytes differentiated into immature dendritic cells
[2] = molecular target: T1, formyl peptide receptor (ETFR cells) (Homo sapiens, UniProt P21462); test: Chemotaxis of ETFR cells; format: cell-based; settings: FIG. 3A
T1 construct: expressed in transfected cells; provided by H. Ali and R. Snyderman (Duke University)
T1 sequence (P21462 1-350): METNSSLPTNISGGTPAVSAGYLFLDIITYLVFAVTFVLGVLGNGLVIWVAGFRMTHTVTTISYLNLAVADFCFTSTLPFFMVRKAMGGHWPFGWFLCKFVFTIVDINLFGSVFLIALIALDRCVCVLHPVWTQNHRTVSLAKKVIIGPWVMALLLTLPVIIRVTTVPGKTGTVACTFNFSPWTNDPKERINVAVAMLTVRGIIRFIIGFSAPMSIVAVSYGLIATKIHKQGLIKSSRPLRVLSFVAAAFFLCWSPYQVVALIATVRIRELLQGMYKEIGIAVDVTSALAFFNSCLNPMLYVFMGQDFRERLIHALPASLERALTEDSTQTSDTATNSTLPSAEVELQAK
Procedure: (§1) A. Selective induction of FPRL1/293 cell chemotaxis by LL-37. The migration of parental HEK293 (open bars), FPRL1/293 (dotted bars), or ETFR (closed bars) cells was assessed by chemotaxis assay with the use of collagen-coated 10-μm membranes. Cells were used at a concentration of 1×10^6 cells/ml. The average C. I. (Mean±SD) of triplicate wells is shown. Spontaneous cell migration (without LL-37) was 10-20 cells/HPF. *p<0.05 when compared with chemotaxis medium alone.
(§2) Human peripheral blood mononuclear cells (PBMC) were isolated from leukopacks (Courtesy of the Transfusion Medicine Department, NIH Clinic Center, Bethesda, MD) by routine Ficoll-Hypaque density gradient centrifugation. Monocytes were purified from human PBMC with the use of MACS CD14 monocyte isolation kit (Miltenyi Biotech Inc., Auburn, CA) according to the manufacturer's recommendation (12). […]
(§3) Migration of neutrophils, monocytes, T cells, and HEK293 or transfectant cells in response to chemotactic factors was assessed using a 48-well microchemotaxis chamber technique as previously described (17, 18). […] After incubation at 37_C in humidified air with 5% CO2 for a period of time (60 min for neutrophils, 90 min for monocytes, 180 min for T cells, and 300 min for HEK293, ETFR, and FPRL1/293 cells), the membranes were removed, scraped, stained, and counted. […]

[3] = molecular target: T1, formyl peptide receptor (ETFR cells); test: Ca2+ flux in ETFR cells; format: cell-based
CCR2 = molecular target: T2, CCR2 (Homo sapiens, UniProt P41597); test: Examination of HEK293 cells stably transfected to express CCR2; format: cell-based
T2 construct: expressed in transfected cells
Excerpt: To mediate its chemotactic effect on monocytes, LL-37 must use a chemotactic receptor expressed by monocytes, but not by monocyte-derived immature dendritic cells.

[4] = molecular target: T3, FPRL1 (HEK293 cells stably transfected with FPRL1) (Homo sapiens, UniProt P25090); test: Chemotaxis of FPRL1/293 cells; format: cell-based; settings: FIG. 3A
T3 construct: expressed in transfected cells; gift of P. M. Murphy and J. L. Gao (NIAID, NIH)
T3 sequence (P25090 1-351): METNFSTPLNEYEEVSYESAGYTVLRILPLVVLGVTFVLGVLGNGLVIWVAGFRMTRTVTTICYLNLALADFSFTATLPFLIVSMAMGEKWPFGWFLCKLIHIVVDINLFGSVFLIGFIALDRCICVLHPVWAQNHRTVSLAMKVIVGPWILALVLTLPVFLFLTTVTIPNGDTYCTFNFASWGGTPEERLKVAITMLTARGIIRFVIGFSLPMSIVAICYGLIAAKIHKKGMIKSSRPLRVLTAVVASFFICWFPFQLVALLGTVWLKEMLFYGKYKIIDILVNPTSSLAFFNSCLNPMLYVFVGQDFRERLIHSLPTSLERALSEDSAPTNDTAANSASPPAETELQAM
Procedure: as §1, §2, §3

[5] = 10% human AB serum; LL-37 at 10^−5 M; cited from earlier work
[6] = test system: human peripheral blood neutrophils; test: Neutrophil chemotaxis assay; format: cell-based
Procedure: (§4) FIGS. 4A-B show the chemotaxis of human neutrophils (A) and CD4 T lymphocytes (B) in response to LL-37. The cell migration was assessed by chemotaxis assay with the use of uncoated (A) or fibronectin-coated (B) 5 μm membranes. The results are presented as the average C. I. (Mean±SD) of triplicate wells. *p<0.05 when compared with spontaneous cell migration (chemotactic medium alone). Neutrophils and CD4 T cells were used at a concentration of 1×10^6 cells/ml and 5×10^6 cells/ml, respectively. Spontaneous neutrophil and T cell migration (without LL-37) was 30-50 and 30-40 cells/HPF, respectively.
(§5) Human peripheral blood mononuclear cells (PBMC) were isolated from leukopacks (Courtesy of the Transfusion Medicine Department, NIH Clinic Center, Bethesda, MD) by routine Ficoll-Hypaque density gradient centrifugation. […]
as §3

human CD4 T cells = test: CD4 T lymphocyte chemotaxis assay; format: cell-based
Procedure: as §4, §5, §3

parental HEK293 cells = test: Chemotaxis of parental HEK293 cells; format: cell-based, human; settings: FIG. 3A
Procedure: as §1
(§6) Migration of neutrophils, monocytes, T cells, and HEK293 or transfectant cells in response to chemotactic factors was assessed using a 48-well microchemotaxis chamber technique as previously described (17, 18). Chemotactic factors diluted in chemotaxis medium (CM, RPMI 1640 containing 1% BSA) were placed in the wells of the lower compartment of the chamber (Neuro Probe, Cabin John, […]), and cells suspended in CM were added to the upper compartment. The lower and upper compartments were separated by a polycarbonate membrane (Osmonics, Livermore, Calf.). After incubation at 37_C in humidified air with 5% CO2 for a period of time (60 min for neutrophils, 90 min for monocytes, 180 min for T cells, and 300 min for HEK293, ETFR, and FPRL1/293 cells), the membranes were removed, scraped, stained, and counted. The results are presented as number of cells per high power field (No./HPF) or as chemotactic index (C.I.).

[7] = test system: human peripheral blood monocytes; test: Monocyte chemotaxis assay (48-well microchemotaxis chamber, incl. checkerboard analysis); format: cell-based; settings: for Migrated monocytes (checkerboard analysis): monocytes 1 × 10^6/ml, Mean ± SD of triplicate wells
Procedure: A. The migration of monocytes (1×10^6 cells/ml) was assessed by chemotaxis assay using 5-μm uncoated membranes. Spontaneous cell migration (without LL-37) was 30-50 cells/HPF. The average C. I. (Mean ±SD) of triplicate wells is shown. *p<0.05 when compared with chemotaxis medium alone (open bar). […]
(§7) Human peripheral blood mononuclear cells (PBMC) were isolated from leukopacks (Courtesy of the Transfusion Medicine Department, NIH Clinic Center, Bethesda, MD) by routine Ficoll-Hypaque density gradient centrifugation. Monocytes were purified from human PBMC with the use of MACS CD14 monocyte isolation kit (Miltenyi Biotech Inc., Auburn, CA) according to the manufacturer's recommendation (12). Neutrophils were purified from the same leukopacks by 3% dextran sedimentation. T cells were purified from PBMC by the use of Human CD4 T Cell Enrichment Columns (R & D Systems, Minneapolis, MN) (12). The purity of neutrophils, monocytes, and T cells by FACScan analysis was more than 95%. Rat basophilic leukemia cells stably transfected with epitope-tagged formyl peptide receptor (ETFR cells) were generously provided by Drs. H. Ali and R. Snyderman (Duke University, Durham, NC), and maintained in the presence of 0.8 mg/ml of geneticin in DMEM supplemented with 10% FBS. Human embryonic kidney cells 293 stably transfected with FPRL1 (designated FPRL1/293 cells thereafter) were a gift of Drs. P. M. Murphy and J. L. Gao (NIAID, NIH, Bethesda, Md) and were maintained in the presence of 2 mg/ml of geneticin in DMEM supplemented with 10% FBS.
as §6

mammalian cells = settings: cited from earlier work
FPRL1 (FPRL1/293 cells) = molecular target: T4, FPRL1 (FPRL1/293 cells) (Homo sapiens, UniProt P25090); test: Ca2+ mobilization assay in FPRL1/293 cells; format: cell-based; settings: FIG. 3B
T4 construct: expressed in transfected cells; gift of P. M. Murphy and J. L. Gao (NIAID, NIH)
T4 sequence (P25090 1-351): T3 sequence (P25090 1-351)
Excerpt: B. LL-37-induced Ca^2+ flux in FPRL1/293 cells. The arrow indicates the time point where LL-37 was applied to the cells.
as §2, with “(12). Neutrophils were purified from the same leukopacks by 3% dextran sedimentation. T cells were purified from PBMC by the use of Human CD4 T Cell Enrichment Columns (R & D Systems, Minneapolis, MN) (12). The purity of neutrophils, monocytes, and T cells by FACScan analysis was more than 95%.” for “(12).”
Monocytes or FPRL1/293 cells (10^7 cells/ml in RPMI 1640 containing 10% FBS) were loaded by incubating with 5 μM Fura-2 (Molecular Probe) at 24_C for 30 minutes in the dark. […] Each 2 ml of loaded cells suspension was then transferred into a quartz cuvette, which was placed in a luminescence spectrometer LS50 B (Perkin-Elmer Limited, Beaconsfield, U.K). Ca^2+mobilization of the cells in response to chemotactic factors was measured by recording the ratio of fluorescence emitted at 510 nm after sequential excitation at 340 nm and 380 nm.

[8] = test system: human peripheral blood monocytes; test: Ca2+ mobilization assay in monocytes (Fura-2); format: cell-based; set-up: Ca2+ flux in freshly isolated monocytes at single concentration: dose or concentration left out as unconfirmed
Excerpt: as §7
Monocytes or FPRL1/293 cells (10^7 cells/ml in RPMI 1640 containing 10% FBS) were loaded by incubating with 5 μM Fura-2 (Molecular Probe) at 24_C for 30 minutes in the dark. Subsequently, the loaded cells were washed with and resuspended (10^6 cells/ml) in saline buffer (138 mM NaCl, 6 mM KC1, 1 mM CaCl2, 10 mM HEPES, 5 mM glucose, and 1% BSA, pH 7.4). Each 2 ml of loaded cells suspension was then transferred into a quartz cuvette, which was placed in a luminescence spectrometer LS50 B (Perkin-Elmer Limited, Beaconsfield, U.K). Ca^2+mobilization of the cells in response to chemotactic factors was measured by recording the ratio of fluorescence emitted at 510 nm after sequential excitation at 340 nm and 380 nm.

immature dendritic cells [9] = test: Ca2+ mobilization in monocyte-derived immature dendritic cells; format: cell-based, human; settings: monocytes differentiated into immature dendritic cells

T2 sequence (P41597 whole entry): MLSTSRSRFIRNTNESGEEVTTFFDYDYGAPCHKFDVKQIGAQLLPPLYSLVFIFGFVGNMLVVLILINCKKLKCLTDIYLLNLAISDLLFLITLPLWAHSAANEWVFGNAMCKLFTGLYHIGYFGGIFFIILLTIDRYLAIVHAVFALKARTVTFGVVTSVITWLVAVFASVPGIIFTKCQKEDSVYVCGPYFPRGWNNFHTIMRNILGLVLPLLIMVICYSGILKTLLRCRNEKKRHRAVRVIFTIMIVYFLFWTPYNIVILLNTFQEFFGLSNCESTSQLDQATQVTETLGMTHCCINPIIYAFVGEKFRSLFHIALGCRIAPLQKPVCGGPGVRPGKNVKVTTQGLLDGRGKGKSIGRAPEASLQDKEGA

## LL-37: 37-residue mature antimicrobial peptide cleaved from hCAP18, human cathelicidin; synthesized by solid-phase Fmoc chemistry
Immature dendritic cells [1]
  Chemotaxis response of immature dendritic cells: could not respond
[2]
  Migration of ETFR cells: did not respond
[3]
  Ca2+ flux in ETFR cells: not in ETFR cells
CCR2
  CCR2 as a receptor (CCR2-transfected HEK293 cells): CCR2 was not a receptor
[4]
  Migration of FPRL1/293 cells: migrated in response to LL-37 in a dose-dependent manner
[5]
  Antimicrobial activity in presence of serum: completely block
[6]; FIG. 4
  Optimal concentration to chemoattract human leukocytes (neutrophils): 10^−5 M
[6]; FIG. 4A
  Migration of purified neutrophils: induced dose-dependent migration
Human CD4 T cells; FIG. 4
  Optimal concentration to chemoattract human leukocytes (CD4 T cells): 10^−5 M
Human CD4 T cells; FIG. 4B
  Migration of CD4 T cells: induced dose-dependent migration
Parental HEK293 cells
  Migration of parental HEK293 cells: did not respond
[7]; 10% human AB serum, FIG. 2B
  LL-37-induced chemotaxis of monocytes in presence of serum: not significantly inhibited
[7]; LL-37 lower wells 0 μM, upper wells 1 μM
  Migrated monocytes (checkerboard analysis): 45 ± 6 No./HPF
[7]; LL-37 lower wells 0 μM, upper wells 10 μM
  Migrated monocytes (checkerboard analysis): 44 ± 7 No./HPF
[7]; LL-37 lower wells 1 μM, upper wells 0 μM
  Migrated monocytes (checkerboard analysis): 135 ± 15** No./HPF
[7]; LL-37 lower wells 1 μM, upper wells 1 μM
  Migrated monocytes (checkerboard analysis): 50 ± 8 No./HPF
[7]; LL-37 lower wells 1 μM, upper wells 10 μM
  Migrated monocytes (checkerboard analysis): 40 ± 6 No./HPF
[7]; LL-37 lower wells 10 μM, upper wells 0 μM
  Migrated monocytes (checkerboard analysis): 495 ± 29** No./HPF
[7]; LL-37 lower wells 10 μM, upper wells 1 μM
  Migrated monocytes (checkerboard analysis): 265 ± 5** No./HPF
[7]; LL-37 lower wells 10 μM, upper wells 10 μM
  Migrated monocytes (checkerboard analysis): 95 ± 2* No./HPF
[7]; dose-dependent, FIG. 1A
  Optimal concentration for induction of monocyte migration: 10^−5 M
Mammalian cells
  Concentration damaging mammalian cells (cytocidal effect): above 5×10^−5 M
FPRL1 (FPRL1/293 cells)
  Ca2+ flux in FPRL1/293 cells: induced Ca^2+flux in a dose-dependent manner
[8]; FIG. 1B
  Induction of Ca2+ flux in monocytes: dose-dependently induced Ca^2+ flux
[8]; Su peptide after LL-37 at 10^−5 M, FIG. 3C b
  Desensitization of Su peptide-induced Ca2+ flux in monocytes: almost completely desensitized
[8]; peptide, FIG. 3C a and c
  Ca2+ flux in freshly isolated monocytes at single concentration: induced Ca^2+ flux to a similar extent
Immature dendritic cells [9]
  Ca2+ mobilization response of immature dendritic cells: could not respond
